Data as given in patent publication US10392428B2, “GLP-1 derivatives and uses thereof” (Novo Nordisk A/S, priority 2014, dated 2019).

Assays:
human GLP-1 receptor [1] = molecular target: T1, human GLP-1 receptor (Homo sapiens, UniProt P43220); assay: In vitro potency: CRE luciferase reporter gene assay in BHK cells expressing the human GLP-1 receptor; assay type: cell-based; conditions: whole cell reporter gene assay, 3 h incubation, average of at least two replicates
T1 construct: expressed in transfected cells; host or cells: membrane preparation from BHK cells, clone FCW467-12A (parent line BHKTS13)
Method: The purpose of this example is to test the activity, or potency, of the GLP-1 derivatives in vitro. The in vitro potency is the measure of human GLP-1 receptor activation in a whole cell assay.
In vitro potency was determined by measuring the response of the human GLP-1 receptor in a reporter gene assay. The assay was performed in a stably transfected BHK cell line that expresses the human GLP-1 receptor and contains the DNA for the cAMP response element (CRE) coupled to a promoter and the gene for firefly luciferase (CRE luciferase). When the human GLP-1 receptor is activated it results in the production of cAMP, which in turn results in the luciferase protein being expressed. When assay incubation is completed the luciferase substrate (luciferin) is added and the enzyme converts luciferin to oxyluciferin to produce bioluminescence. The luminescence is measured as the readout for the assay.
The cells were cultured at 5% CO2 in cell culture medium. They were aliquoted and stored in liquid nitrogen. Before each assay an aliquot was taken up and washed twice in PBS before being suspended at the desired concentration in the assay specific buffer.
Assay medium consisted of DMEM w/o phenol red, 10 mM Hepes and 1χ Glutamax. The assay buffer consisted of 2% ovalbumin and 0.2% Pluronic F-68 in assay medium.
1) Cell stocks were thawed in a 37° C. water bath.
2) Cells were washed three times in PBS.
3) Cells were counted and adjusted to 5×10^3 cells/50 μl (1×10^5 cells/ml) in assay medium. A 50 μl aliquot of cells was transferred to each well in the assay plate.
4) Stocks of the test compounds and reference compounds were diluted to a concentration of 0.2 μM in assay buffer. […] 8) A 100 μl aliquot of steadylite plus reagent was added to each well of the assay plate. […] 10) Each assay plate was read in a BioTek Synergy 2 Multi-Mode Reader.
The data from the BioTek Synergy 2 Multi-Mode Reader were transferred to GraphPad Prism software. […]
A minimum of two replicates was measured for each sample. The reported EC50 values are averages of all of the measured values for each compound.

human GLP-1 receptor [2] = molecular target: T1, human GLP-1 receptor; assay: GLP-1 receptor binding: competitive binding assay (125I-GLP-1, SPA) on isolated membranes at low and high HSA; conditions: low HSA (max. 0.001% final assay concentration); read-out: Low HSA IC50
Method: The purpose of this example is to test the receptor binding of the GLP-1 derivatives in vitro. The receptor binding is a measure of affinity of a derivative for the human GLP-1 receptor.
Each derivative is added in a series of concentrations to isolated membranes containing the human GLP-1 receptor and displacement of the labelled ligand is monitored. The receptor binding is reported as the concentration at which half of the labelled ligand is displaced from the receptor, the IC50 value.
Buffer 1 consisted of 20 mM Na-HEPES plus 10 mM EDTA and pH was adjusted to 7.4. Buffer 2 consisted of 20 mM Na-HEPES plus 0.1 mM EDTA and pH was adjusted to 7.4. Assay buffer consisted of 50 mM HEPES supplemented with 5 mM EGTA, 5 mM MgCl2, 0.005% Tween 20 and pH was adjusted to 7.4. An 8% albumin stock consisted of HSA dissolved at 8% (w/v) in assay buffer. An 0.02% albumin stock consisted of HSA dissolved at 0.02% (w/v) in assay buffer.
The cells express the human GLP-1 receptor.
The cells were grown at 5% CO2 in DMEM, 10% fetal calf serum, 1% Pen/Strep (Penicillin/Streptomycin) and 1.0 mg/ml of the selection marker G418.
To make a membrane preparation the cells were grown to approximately 80% confluence. The cells were washed twice in phosphate-buffered saline and harvested. The cells were pelleted using a brief centrifugation and the cell pellet was kept on ice. […] The homogenate was centrifuged for 15 minutes. The pellet was re-suspended (homogenised) in 10 ml buffer 2 and centrifuged. This step was repeated once more. The resulting pellet was re-suspended in buffer 2 and the protein concentration was determined. The membranes were aliquoted and stored at minus 80° C.
For the receptor binding assay in the presence of low HSA (0.005%) 50 μl of the assay buffer was added to each well of an assay plate.
For the receptor binding assay in the presence of high HSA (2%) 50 μl of the 8% albumin stock was added to each well of an assay plate.
Cell membrane aliquots were thawed and diluted to their working concentration. Fifty μl were added to each well in the assay plate.
WGA SPA beads were suspended in assay buffer at 20 mg/ml. The suspension was diluted to 10 mg/ml in assay buffer just prior to addition to the assay plate. Fifty μl were added to each well in the assay plate.
A 25 μl aliquot was reserved for measuring total counts/well.
The assay plate was incubated for 2 h at 30° C.
The assay plate was centrifuged for 10 min.
The assay plate was read in a Packard TopCount NXT instrument.
The data from the TopCount instrument were transferred to Graph Pad Prism software. Individual replicates were analysed using non-linear regression. IC50 values were calculated by the software and reported in nM. The reported values are averages of all of the measured values for each compound.

[3] = tested on: obese, diabetic mouse model (db/db mice); assay: Pharmacodynamic study in db/db mice: acute effect on blood glucose and body weight; assay type: in vivo
Method: The purpose of the study is to verify the acute effect of the GLP-1 derivatives on blood glucose (BG) and body weight (BW) in a diabetic setting.
The GLP-1 derivatives of Examples 2-4 and 6-10 were tested in a single-dose study in an obese, diabetic mouse model (db/db mice) as described in the following.
Six db/db mice per compound to be tested (from Taconic, Denmark), fed from birth with the diet NIH31 (NIH 31M Rodent Diet, commercially available from Taconic Farms, Inc., US, see www.taconic.com), were enrolled for the study at the age of approximately 10 weeks. At arrival to the animal facility the mice were given free access to standard chow (e.g. Altromin 1324, Brogaarden, Denmark) and tap water and kept at 24° C. After 1-2 weeks of acclimatisation, the basal blood glucose was assessed twice on two consecutive days (i.e. at 9 am). The mice were allocated to treatment groups based on matching blood glucose levels and body weights. […]
On the day of dosing, blood glucose was assessed at time −½ h (8.30 am), the mice were weighed after this. […] On the day of dosing, blood glucose was assessed at times 1, 2, 4 and 8 h (10 am, 11 am, 1 pm and 5 pm) after dosing.
On the following days, the blood glucose was assessed at time 24 h, 48 h, 72 h, and 96 h (all Example compounds), and for the GLP-1 derivatives of Examples […] blood glucose was further assessed daily up to 240 h after dosing. […]
Samples for the measurement of blood glucose were obtained from the tail tip capillary of conscious mice. […] The glucose concentration was measured using the glucose oxidase method (glucose analyser Biosen 5040, EKF Diagnostic, GmbH, Germany). […]
The data are presented as percent change in blood glucose or body weight measured at the 48 h time points. For example, the percent change in blood glucose level at 48 h for each individual is calculated as follows: [[(blood glucose level at 48 h)−(basal blood glucose level)]/(basal blood glucose level)]×100%], where basal blood glucose level refers to the level before the administration of any treatment−and vice versa for the body weight change. […]

[4] = single s.c. dose 10 nmol/kg, 48 h vs basal

T1 sequence (P43220 24-463): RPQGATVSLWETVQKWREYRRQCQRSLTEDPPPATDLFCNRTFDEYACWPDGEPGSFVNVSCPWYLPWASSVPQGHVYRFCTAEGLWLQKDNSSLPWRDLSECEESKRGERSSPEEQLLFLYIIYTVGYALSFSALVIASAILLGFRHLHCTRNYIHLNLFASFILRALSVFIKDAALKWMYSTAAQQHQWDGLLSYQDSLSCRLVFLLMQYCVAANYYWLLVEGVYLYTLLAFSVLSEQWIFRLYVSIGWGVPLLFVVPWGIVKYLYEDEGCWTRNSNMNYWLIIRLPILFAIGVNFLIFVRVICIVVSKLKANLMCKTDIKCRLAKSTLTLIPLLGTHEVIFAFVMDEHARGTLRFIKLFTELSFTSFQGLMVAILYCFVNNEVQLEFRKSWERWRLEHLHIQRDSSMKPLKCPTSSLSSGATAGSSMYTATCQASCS

SMILES: CC[C@H](C)[C@H](NC(=O)[C@H](Cc1ccccc1)NC(=O)[C@H](CCC(=O)O)NC(=O)[C@H](CCCNC(=N)N)NC(=O)[C@H](C)NC(=O)[C@H](C)NC(=O)[C@H](CCC(N)=O)NC(=O)[C@H](CCC(=O)O)NC(=O)[C@H](CCC(=O)O)NC(=O)[C@H](CC(C)C)NC(=O)[C@H](Cc1ccc(O)cc1)NC(=O)[C@H](CO)NC(=O)[C@H](CO)NC(=O)[C@@H](NC(=O)[C@H](CC(=O)O)NC(=O)[C@H](CO)NC(=O)[C@@H](NC(=O)[C@H](Cc1ccccc1)NC(=O)[C@@H](NC(=O)CNC(=O)[C@H](CCC(=O)O)NC(=O)C(C)(C)NC(=O)[C@@H](N)Cc1c[nH]cn1)[C@@H](C)O)[C@@H](C)O)C(C)C)C(=O)N[C@@H](C)C(=O)N[C@@H](Cc1c[nH]c2ccccc12)C(=O)N[C@@H](CC(C)C)C(=O)N[C@H](C(=O)N[C@@H](CCCNC(=N)N)C(=O)NCC(=O)N[C@@H](CCCNC(=N)N)C(=O)N[C@@H](CCCCNC(=O)[C@@H](N)CCCCNC(=O)[C@@H](N)CCCCNC(=O)[C@@H](N)CCCCNC(=O)[C@@H](N)CCCCNC(=O)[C@H](CCCCNC(=O)CC[C@H](NC(=O)[C@H]1CC[C@H](CNC(=O)CCCCCCCCCCCCCCCCCCC(=O)O)CC1)C(=O)O)NC(=O)CC[C@H](NC(=O)[C@H]1CC[C@H](CNC(=O)CCCCCCCCCCCCCCCCCCC(=O)O)CC1)C(=O)O)C(=O)O)C(C)C [Example 10, N{Epsilon-37}-[(2S)-2-amino-6-[[(2S)-2-amino-6-[[(2S)-2-amino-6-[[(2S)-2-amino-6-[[(2S)-2,6-bis[[(4S)-4-carboxy-4-[[4-[(19-carboxynonadecanoylamino)methyl]cyclohexanecarbonyl]amino]butanoyl]amino]hexanoyl]amino]hexanoyl]amino]hexanoyl]amino]hexanoyl]amino]hexanoyl]-[Aib8,Glu22,Arg26,Arg34,Lys37]-GLP-1-(7-37)-peptide]
- EC50 (human GLP-1 receptor [1]): 0.15 nM
- IC50 (human GLP-1 receptor [2]): 19 nM
- effect on BG ([3]; after 48 h, single s.c. injection of either 3, 10 or 30 nmol/kg): not as pronounced
- % change in blood glucose [3, 4]: −3%
- % change in body weight [3, 4]: −3%
